Data set [1] in a line: Repetitive daily dosing in TPTX rats (10 days). Type of data set: in vivo, rat. Conditions: calcitriol 0.2 μg/kg oral daily 10 days. As to the method:
FIGS. 20A-20D are graphs showing effects of once-daily SP-PTH on serum and urine Ca in TPTX rats. TPTX and sham-control rats were treated once daily, for 10 days, via sc. injection with either vehicle (Sham and TPTX) or SP-PTH (SEQ ID NO:11) (1, 2. 4, or 8 nmol/kg), or with 1,25(OH)2D (0.075 or 0.2 μg/kg. orn). After the last injection on day 10, the rats were placed in metabolic cages, and jugular vein blood was obtained at 8 (FIG. 20A) and 24 hrs (FIG. 20B); urine was collected for the intervals 0-8 (FIG. 20C) and 8-24 hrs (FIG. 20D); means±s.e.m: n=5; ′˜, P vs vehicle <005.
In therapeutic use in humans, one would administer doses sufficient to only normalize blood Ca. A key experiment is to determine if it is indeed feasible to normalize sCa following a repetitive dosing regimen. We thus performed the experiment of FIGS. 20A-2D, in which TPTX rats were treated daily for 10 days with SP-PTH at doses of 1, 2, 4 and 8 nmol/kg (s.c). For comparison, 1,25(OH)2-vitamin-D (calcitriol) at doses of 0.075 and 0.2 mcg/kg (oral) were used for the same time periods.

Data set [2] concerns the target T1, rat PTHR1 (R0) (Rattus norvegicus, UniProt P25961).
T1 sequence (P25961 27-591): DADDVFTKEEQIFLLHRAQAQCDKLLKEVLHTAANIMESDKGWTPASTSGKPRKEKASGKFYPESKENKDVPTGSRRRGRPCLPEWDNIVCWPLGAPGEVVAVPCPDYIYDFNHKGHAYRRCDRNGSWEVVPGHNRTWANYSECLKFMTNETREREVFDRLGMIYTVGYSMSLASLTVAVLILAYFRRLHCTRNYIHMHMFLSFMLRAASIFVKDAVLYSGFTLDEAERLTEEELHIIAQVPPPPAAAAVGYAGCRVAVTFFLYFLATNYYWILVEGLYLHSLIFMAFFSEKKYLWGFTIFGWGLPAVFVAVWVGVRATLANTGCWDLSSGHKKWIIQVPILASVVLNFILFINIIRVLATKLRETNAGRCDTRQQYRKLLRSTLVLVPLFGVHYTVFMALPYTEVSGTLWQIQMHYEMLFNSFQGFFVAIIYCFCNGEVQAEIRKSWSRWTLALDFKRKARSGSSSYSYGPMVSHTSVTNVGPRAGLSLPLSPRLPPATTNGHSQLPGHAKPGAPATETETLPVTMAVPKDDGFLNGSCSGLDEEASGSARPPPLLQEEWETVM
Kind of data set: Competition binding, R0 conformation of rat PTHR1. Conditions: R0 conformation; mean of 4 experiments; read-out: Binding rat PTHR1 IC50 (Log M) R0 (converted). The source says: Briefly, the R^0 form of the receptor can be favored by addition of the non-hydrolyzable nucleotide analog GTPγS. The RG form can be favored, for example, by co-transfection of cells with a negative dominant Gαs subunit. […] Data are means of four experiments, each performed in duplicate. Curves were fit to the data using Graph-Pad Prism 4.0.

Data set [3] has as its system MC3T3-E1 cells. The data set can be described thus: cAMP RIA in intact MC3T3-E1 cells. Conditions: 30 min, room temperature, IBMX. It counts as cell-based, mouse. The protocol:
cAMP stimulating activity of these polypeptides was also assessed, using two different methods: a radioimmunoassay (RIA; FIG. 2) and a cAMP responsive element fused to a luciferase gene (FIG. 3). Briefly, the RIA cAMP assays were performed in intact MC3T3-E1 cells, a mouse pre-osteoblastic cell line, in 96-well plates, as described by Okazaki et al. (Proc Natl Acad Sci USA 105:16525-30, 2008). […] The cAMP contents of the HCl lysates were then determined by RIA. Data are means of six experiments, each performed in duplicate. Curves were fit to the data using Graph-Pad Prism 4.0.

A short description of data set [4]: Peptide pharmacokinetics in TPTX rats.
Where [5] appears, read: Crl:CD(SD), rat, in vivo, iv, 24.3 nmol/kg.
The mark [6] stands for this setting: TPTX rats, 24.3 nmol/kg intravenously, mean.

Square brackets hold non-standard residues; d marks the D form. Peptide text beside a SMILES is read from it. hArg = N=C(N)NCCCC[C@H](N)C(=O)O; Aib = CC(C)(N)C(=O)O

On to `C=C1/C(=C\C=C2/CCC[C@]3(C)[C@@H]([C@H](C)CCCC(C)(C)O)CC[C@@H]23)C[C@@H](O)C[C@@H]1O` [calcitriol, 1,25(OH)2-vitamin-D, reference compound], for which, in data set [1], the sCa achieved lay within 8 to 9 mg/dL and the urine calcium result is “elevated urine calcium”.

In the case of `CC[C@H](C)[C@H](NC(=O)[C@H](CCC(=O)O)NC(=O)C(C)(C)NC(=O)[C@@H](NC(=O)[C@H](C)N)C(C)C)C(=O)N[C@@H](CCC(N)=O)C(=O)N[C@@H](CC(C)C)C(=O)N[C@@H](CCSC)C(=O)N[C@@H](Cc1c[nH]cn1)C(=O)N[C@@H](CCC(N)=O)C(=O)N[C@@H](CCCCNC(=N)N)C(=O)N[C@@H](C)C(=O)N[C@@H](CCCCN)C(=O)N[C@@H](Cc1c[nH]c2ccccc12)C(=O)N[C@@H](CC(C)C)C(=O)N[C@@H](CC(N)=O)C(=O)N[C@@H](CO)C(=O)N[C@@H](CCSC)C(=O)N[C@@H](CCCNC(=N)N)C(=O)N[C@@H](CCCNC(=N)N)C(=O)N[C@H](C(=O)N[C@@H](CCC(=O)O)C(=O)N[C@@H](Cc1c[nH]c2ccccc12)C(=O)N[C@@H](CC(C)C)C(=O)N[C@@H](CCCNC(=N)N)C(=O)N[C@@H](CCCCN)C(=O)N[C@@H](CCCCN)C(=O)N[C@@H](CC(C)C)C(=O)N[C@@H](CCC(N)=O)C(=O)N[C@@H](CC(=O)O)C(=O)N[C@H](C(=O)N[C@@H](Cc1c[nH]cn1)C(=O)N[C@@H](CC(N)=O)C(=O)N[C@@H](Cc1ccccc1)C(N)=O)C(C)C)C(C)C` [M-PTH(1-34), M-PTH(1-34).NH2, reference compound] (H-AV[Aib]EIQLMHQ[hArg]AKWLNSMRRVEWLRKKLQDVHNF-NH2; N-terminus assumed), the IC50 in data set [2] was 1.48 nM. Besides, in data set [3], a half-maximal effect (EC50) was put at 0.048 nM and the “cAMP MC3T3-E1 cells Emax (pmole/well)” value was 56.3 ± 13.4 pmole/well. In data set [3] (6 experiments), the “cAMP MC3T3-E1 cells EC50 (Log M)” value is listed as −10.3 ± 0.1 Log M.

In the case of `CC[C@H](C)[C@H](NC(=O)[C@H](CCC(=O)O)NC(=O)[C@H](CO)NC(=O)[C@@H](NC(=O)[C@@H](N)CO)C(C)C)C(=O)N[C@@H](CCC(N)=O)C(=O)N[C@@H](CC(C)C)C(=O)N[C@@H](CCSC)C(=O)N[C@@H](Cc1c[nH]cn1)C(=O)N[C@@H](CC(N)=O)C(=O)N[C@@H](CC(C)C)C(=O)NCC(=O)N[C@@H](CCCCN)C(=O)N[C@@H](Cc1c[nH]cn1)C(=O)N[C@@H](CC(C)C)C(=O)N[C@@H](CC(N)=O)C(=O)N[C@@H](CO)C(=O)N[C@@H](CCSC)C(=O)N[C@@H](CCC(=O)O)C(=O)N[C@@H](CCCNC(=N)N)C(=O)N[C@H](C(=O)N[C@@H](CCC(=O)O)C(=O)N[C@@H](Cc1c[nH]c2ccccc12)C(=O)N[C@@H](CC(C)C)C(=O)N[C@@H](CCCNC(=N)N)C(=O)N[C@@H](CCCCN)C(=O)N[C@@H](CCCCN)C(=O)N[C@@H](CC(C)C)C(=O)N[C@@H](CCC(N)=O)C(=O)N[C@@H](CC(=O)O)C(=O)N[C@H](C(=O)N[C@@H](Cc1c[nH]cn1)C(=O)N[C@@H](CC(N)=O)C(=O)N[C@@H](Cc1ccccc1)C(=O)N[C@H](C(=O)N[C@@H](C)C(=O)N[C@@H](CC(C)C)C(=O)NCC(=O)N[C@@H](C)C(=O)N1CCC[C@H]1C(=O)N[C@@H](CC(C)C)C(=O)N[C@@H](C)C(=O)N1CCC[C@H]1C(=O)N[C@@H](CCCNC(=N)N)C(=O)N[C@@H](CC(=O)O)C(=O)N[C@@H](C)C(=O)NCC(=O)N[C@@H](CO)C(=O)N[C@@H](CCC(N)=O)C(=O)N[C@@H](CCCNC(=N)N)C(=O)N1CCC[C@H]1C(=O)N[C@@H](CCCNC(=N)N)C(=O)N[C@@H](CCCCN)C(=O)N[C@@H](CCCCN)C(=O)N[C@@H](CCC(=O)O)C(=O)N[C@@H](CC(=O)O)C(=O)N[C@@H](CC(N)=O)C(=O)N[C@H](C(=O)N[C@@H](CC(C)C)C(=O)N[C@H](C(=O)N[C@@H](CCC(=O)O)C(=O)N[C@@H](CO)C(=O)N[C@@H](Cc1c[nH]cn1)C(=O)N[C@@H](CCC(=O)O)C(=O)N[C@@H](CCCCN)C(=O)N[C@@H](CO)C(=O)N[C@@H](CC(C)C)C(=O)NCC(=O)N[C@@H](CCC(=O)O)C(=O)N[C@@H](C)C(=O)N[C@@H](CC(=O)O)C(=O)N[C@@H](CCCCN)C(=O)N[C@@H](C)C(=O)N[C@@H](CC(=O)O)C(=O)N[C@H](C(=O)N[C@@H](CC(N)=O)C(=O)N[C@H](C(=O)N[C@@H](CC(C)C)C(=O)N[C@H](C(=O)N[C@@H](CCCCN)C(=O)N[C@@H](C)C(=O)N[C@@H](CCCCN)C(=O)N[C@@H](CO)C(=O)N[C@@H](CCC(N)=O)C(=O)O)[C@@H](C)O)C(C)C)C(C)C)C(C)C)C(C)C)C(C)C)C(C)C)C(C)C` [hPTH (1-84), hPTH(1-84)], in data set [4] (setting [5]), the MRT was 3.58 min, the Vd came to 0.0662 L/kg, the clearance came to 1.03 L/h/kg and the half-life was found to be 5.44 min. In data set [4] (setting [6]), this compound came in with an AUCinf of 1663 pmol·min/mL and an AUClast of 1663 pmol·min/mL.

The term IC50 denotes the concentration that inhibits the measured activity by half. The EC50 is the concentration at which the effect is half-maximal. A low value points to higher potency in that assay. Broadly, the MRT is a mean duration of stay, worked out from the concentration-time curve. As usually defined, the Vd is a proportionality between amount in the body and measured concentration, not a real space. High values mean extensive tissue distribution, low ones confinement near the circulation. The term clearance denotes a measure of how efficiently the substance is removed, as volume per time. Lower therefore signals a low capacity for elimination. Broadly, the half-life is the time needed for the level to fall by half in the phase considered. A lower half-life goes with rapid decline.

These data come from US9492508B2, “Parathyroid hormone analogs and uses thereof” (The General Hospital Corporation, priority 2010, dated 2016).
